# Target: T1, Androgen Receptor (Homo sapiens, UniProt P10275)
# T1 construct: endogenous in cells
# T1 sequence (P10275 1-920): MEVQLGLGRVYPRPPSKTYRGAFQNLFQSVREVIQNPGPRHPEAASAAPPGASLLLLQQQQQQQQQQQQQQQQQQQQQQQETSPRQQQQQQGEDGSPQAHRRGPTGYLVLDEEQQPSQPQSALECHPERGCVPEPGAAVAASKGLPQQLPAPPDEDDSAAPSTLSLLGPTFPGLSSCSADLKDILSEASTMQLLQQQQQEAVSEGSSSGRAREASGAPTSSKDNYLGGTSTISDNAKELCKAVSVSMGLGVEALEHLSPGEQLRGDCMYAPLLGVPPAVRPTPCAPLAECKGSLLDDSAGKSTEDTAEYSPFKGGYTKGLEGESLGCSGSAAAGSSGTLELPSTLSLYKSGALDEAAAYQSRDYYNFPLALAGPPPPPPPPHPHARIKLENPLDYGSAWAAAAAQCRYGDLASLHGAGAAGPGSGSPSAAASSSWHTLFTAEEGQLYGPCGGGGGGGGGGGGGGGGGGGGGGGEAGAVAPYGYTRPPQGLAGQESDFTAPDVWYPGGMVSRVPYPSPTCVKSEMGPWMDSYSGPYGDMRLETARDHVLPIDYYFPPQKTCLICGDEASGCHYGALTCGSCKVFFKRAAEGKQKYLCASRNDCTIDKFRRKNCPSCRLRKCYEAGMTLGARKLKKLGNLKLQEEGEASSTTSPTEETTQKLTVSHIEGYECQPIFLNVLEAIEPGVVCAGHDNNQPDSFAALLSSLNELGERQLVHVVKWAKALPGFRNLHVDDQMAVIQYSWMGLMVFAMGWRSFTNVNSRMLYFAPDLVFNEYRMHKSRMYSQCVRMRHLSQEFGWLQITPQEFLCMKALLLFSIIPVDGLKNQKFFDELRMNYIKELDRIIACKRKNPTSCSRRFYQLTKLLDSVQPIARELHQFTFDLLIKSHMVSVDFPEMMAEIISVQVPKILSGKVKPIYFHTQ
# Assay: AR degradation in AR positive TNBC cells, western blotting
# Format: cell-based
# Details: MDA-MB-453, SUM159PT and MFM-223 cells, 24 hours, up to 1 μM, western blot
# Experimental: Cells were plated in 12-well microplates and incubated at 37° C. overnight for attachment. Cells were then treated for 24 hours with serial dilutions of tested compounds with the maximum working concentration of 1 μM. Cell lysate were subjected to the western blotting assay against AR antibody.
# Primary antibodies: Androgen Receptor (D6F11) XP® Rabbit mAb; Anti-GAPDH Rabbit mAb; Secondary antibody: Goat Anti-Rabbit IgG H&L (HRP)
compound,measurement,value
N#Cc1ccc(O[C@H]2CC[C@H](NC(=O)c3cnc(N4CCC(CN5CCC6(CC5)CN(c5ccc7c(c5)C(=O)N(C5CCC(=O)NC5=O)C7=O)C6)CC4)nn3)CC2)cc1Cl (stereo partly shown) [Compound 279],"AR degradation (words, FIG. 1)",superior degradation activity
